Patent US5827887A, “Biphenyl compounds” (Roussel Uclaf, priority 1995, dated 1998)

Biological target: T1, human prostate 5-α-reductase (PH6) (Homo sapiens, UniProt P31213)
T1 construct: Homogenates of human prostates were used, obtained by radical prostatectomies; from tissue; host or cells: human prostate (benign hyperplasia, radical prostatectomy), homogenate, 140,000 g pellet
T1 sequence (P31213 1-254): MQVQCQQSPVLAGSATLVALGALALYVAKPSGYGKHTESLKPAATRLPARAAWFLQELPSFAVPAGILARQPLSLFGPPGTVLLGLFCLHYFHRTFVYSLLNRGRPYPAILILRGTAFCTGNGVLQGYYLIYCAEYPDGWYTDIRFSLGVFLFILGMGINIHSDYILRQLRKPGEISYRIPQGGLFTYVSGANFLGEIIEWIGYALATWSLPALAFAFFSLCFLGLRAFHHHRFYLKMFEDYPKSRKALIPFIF
Test: 5-α-reductase activity in vitro, HPLC of 5-α reduced metabolites of tritiated testosterone, homogenates of human prostates (PH6)
Format: biochemical
Conditions: human prostate homogenate; testosterone substrate; pH 5.5; 37° C., 30 minutes; read-out: IC50 of inhibition of the 5-α-reductase activity of the human prostate enzyme (PH6)
Experimental: The test for measuring the 5-α-reductase activity took place in vitro by incubating the enzyme and its substrate (testosterone) and measuring by HPLC chromatography the quantity of 5-α reduced metabolites formed (dihydro-testosterone (DHT) and 5-α-androstane-diol). Homogenates of human prostates were used, obtained by radical prostatectomies due to benign hyperplasia of the prostate (BHP): PH6.
The prostate was collected as soon as it left the operating theater suite and was packed in aluminum foil placed in a container filled with dry ice. In the laboratory, if the homogenate was not prepared immediately, the prostate could be kept at -80° C. The prostate was shredded over ice into very small pieces, which were homogenized in a medium A (20 mM of potassium phosphate, pH 6.5; 0.32M of sucrose; 1 mM of dithiotreitol (DTT); 50 uM NADPH), in a polytron, then in a Potter glass flask. After centrifuging at 140,000 g for 60 minutes at 4° C., the pellets obtained were suspended in 10 to 20 ml of medium B ([…] of potassium phosphate, pH 6.5; 20% of glycerol; 1 mM of dithiothreitol). The medium was distributed in Nunc tubes kept at -80° C. Determination of the proteins was carried out on a small amount of homogenate for its future use in the test and it was therefore assured of having at least 10 mg of proteins/ml of homogenate.
Incubation was carried out at a pH of 5.5 at the rate of 1 ml of medium/tube in the presence of citrate (normal medium and pH of the prostate).
1) Preparation of the substrate (S) which was the mixture of "unlabelled" testosterone and "tritiated" testosterone with an isotopic dilution of 100 in a trisodium citrate buffer pH 5.0
a) 40 mM of trisodium citrate buffer: 11.76 g of 3 Na-citrate, 2H2 O (Merk ref. Art 6448) were weighed and dissolved in 1 liter of distilled water (Milli-Q) and the solution was adjusted to pH of 5.0.
b) mixture of "unlabelled" testosterone and "tritiated testosterone with an isotopic dilution of 100: To obtain a solution of testosterone of 1 mM, 2.88 mg of "unlabelled" testosterone were weighed and dissolved in 10 ml of ethanol. This solution was diluted to 0.99/1000, that is 9.9 μl in 10 ml of citrate buffer (=10^-6 M solution). 9 μl of ^3 H-testosterone (NET-370) were added to 10 ml of the preceding solution (=isotopic dilution of 100). The substrate (S) was ready.
2) Preparation of enzyme+DTT+NADPH mixture
a) Potassium phosphate buffer, 40 mM, pH 6.5:
5.44 g de KH2 PO4 (Riedel de Haen ref. 30407) was weighed and dissolved in 1 liter of distilled water (Milli-Q) and the solution was adjusted to a pH of 6.5.
3.1 mg of DTT were weighed and dissolved in 1 ml of phosphate buffer.
8.33 mg of NADPH were weighed and dissolved in 1 ml of phosphate buffer.
d) enzyme+DTT+NADPH mixture (E):
For one test, 0.5 mg of proteins of prostate homogenate, 50 μl of DTT and 50 μl of NADPH were mixed together at 4° C. and the mixture was made up to 500 μl with the phosphate buffer.
3) Incubation (5α-reduction)
One tube was prepared for each test and 500 μl of (S) and 10 μl of inhibitor at the desired concentration (or ethanol for the controls) are put in each tube. The tubes containing mixture (S) and the flask containing mixture (E) were pre-incubated in a water bath for 3 to 5 minutes.
To start the reaction, 500 μl of E were transferred rapidly into each tube containing S+the inhibitor and the mixture was incubated at 37° C. with gentle stirring for 30 minutes. […]

Row | IC50 [nM] | Structure (SMILES)
1 | 9.6 | CC(C)N(C(=O)COc1c(F)cc(-c2ccc(C(=O)O)cc2)cc1[N+](=O)[O-])C(C)C [Example 4, 4'-[2-[bis-(isopropyl)-amino]-2-oxoethoxy]-3'-fluoro-5'-nitro-(1,1'-biphenyl)-4-carboxylic acid]
2 | 92 | O=C(COc1ccc(-c2ccc(C(=O)O)cc2)cc1)NC(c1ccccc1)(c1ccccc1)c1ccccc1 [Example 5, 4'-[2-oxo-2-([tribenzyl)-amino]-ethoxy]-(1,1'-biphenyl) -4-carboxylic acid]
3 | 36 | O=C(COc1c(F)cc(-c2ccc(C(=O)O)cc2)cc1[N+](=O)[O-])NC(c1ccccc1)(c1ccccc1)c1ccccc1 [Example 6, 3'-fluoro-5'-nitro-4'-[2-oxo-2-[(tribenzyl)-amino]-ethoxy]-(1,1'-biphenyl)-4-carboxylic acid]
4 | 77 | CCc1cc(OCC(=O)N(C(C)C)C(C)C)ccc1-c1ccc(C(=O)O)cc1 [Example 11, 4'-(2-[bis-(isopropyl)-amino)-2-oxoethoxy]-2'-ethyl-(1,1'-biphenyl)-4-carboxylic acid]
5 | 2000 | CCc1cc(-c2ccc(C(=O)O)cc2)ccc1OCC(=O)N(C(C)C)C(C)C [Example 12, 4'-[2-[bis-(isopropyl)-amino)-2-oxoethoxy]-3'-ethyl-(1,1'-biphenyl)-4-carboxylic acid]
